Results on five compounds are retold here after patent US20110318266A1, “PHTHALIMIDE DERIVATIVE METABOTROPIC GLUTAMATE R4 LIGANDS” (priority 2008, published 2011).

Assay [1] deals with T1, mGluR4 (Homo sapiens, UniProt Q14833). As to the kind of experiment: mGluR4 Binding Assay. Also noted: expressed in transfected cells; host or cells: CHO cells. Particulars: membranes from CHO cells expressing human mGluR4; 20 uM L-AP4; 7 nM radiotracer [3H]-N-(4-{[(2-Chlorophenyl)amino]sulfonyl}phenyl)pyridine-2-carboxamide.
Description: Membranes were prepared from CHO cells expressing the human mGluR4 receptor. Cells were harvested using trypsin and then washed in assay buffer, assay buffer contains 50 mM HEPES, 1 mM EDTA and protease inhibitors (Boehringer Mannheim catalog #1 836 170). Harvested cells were pelleted by centrifugation and stored at −80° C. for a minimum of 12 hours. Cells were resuspended in assay buffer and lysed by a polytron, a low speed spin, 2000×g for 10 min, was used to recover unbroken cells for additional treatment using the polytron. The cleared supernatant from the low speed spins was subjected to a high speed spin, 96,000×g for 1 hour. The membrane pellet from the high speed spin was resuspended in assay buffer and used in the mGluR4 binding assay.
The binding assay follows a standard filtration binding paradigm. The binding buffer consists of 20 mM HEPES, 100 mM NaCl and 3 mM MgCl2, the pH of the buffer is 7.4. The assay is performed in a 96-well format with each well containing test compound, 25 to 50 ug of membrane protein, 20 uM L-AP4, and 7 nM radiotracer, [^3H]—N-(4-{[(2-Chlorophenyl)amino]sulfonyl}phenyl)pyridine-2-carboxamide, which is disclosed in commonly owned U.S. patent application docket no.
The binding reaction is incubated at room temperature for 1 hour, and then is passed through GF/B filter that was presoaked with 0.5% PEI. The cell membranes are collected on the filter and then washed five times with ˜5 ml ice cold binding buffer that contains 0.01% BSA. The washed filter plate is dried for 30 minutes at 37° C., scintillation fluid is added, and the amount of filter bound radioactivity is determined using a TopCount instrument. […] To determine the level of non-specific binding for the radiotracer [^3H]—N-(4-{[(2-Chlorophenyl)amino]sulfonyl}phenyl)pyridine-2-carboxamide, 5 uM of unlabeled [^3H]—N-(4-{[(2-Chlorophenyl)amino]sulfonyl}phenyl)pyridine-2-carboxamide is added to determine the level of non-specific binding. […]
Assay [2] concerns the target T1, mGluR4. As to the kind of experiment: Fluorescent Plate Imaging Reader (FLIPR) Assay for mGluR4 Potentiators. It is filed as cell-based. Also noted: expressed in transfected cells. The settings on record: for Emax: maximal activity relative to response with saturating concentration (10 uM) of agonist L-AP4, read-out: mGlu4 FLIPR % Max Efficacy; for EC50: potentiator response with EC10 concentration of L-AP4 (30 nM), inflection point of the curve, read-out: mGluR4 FLIPR Potency. How it is done: Cells are grown in Corning T162 cm^2 flasks in DMEM growth media at 37° C. and 5% CO2. Growth media contains: Gibco DMEM supplemented with 10% defined FBS, 1% GlutaMax −1, 1% sodium pyruvate, 1% NEAA, 1% Pen/Strep, 250 ug/ml zeocin, 25 mM HEPES, 0.1% 2-Mercaptoethanol, 600 ug/ml Hygromycin B, 7.5 ug/ml blasticidin, and 5 ug/ml puromycin.
The day prior to the experiment the cells were plated in growth medium (minus glutamine) at 50K cells/well into Becton-Dickinson 384-well PDL-coated plates using a Labsystems Multidrop (0.1 ml/well). The cells are grown overnight at 37° C. and 6% CO2.
The following day, the cells are washed with Assay Buffer at 37° C. using a Skatron EMBLA cell washer (3×100 μl, aspiration 3 mm from bottom will leave 30 μl of buffer in each well). Assay buffer is Hanks balanced salt solution with 20 mM HEPES, 2.5 mM probenecid and 0.1% BSA.
Fluorescent dye, 30 μl of the diluted Fluo-4-AM, is added to each well of the plate. The Fluo-4-AM solution is added to achieve a final concentration in the assay of 2 uM Fluo-4-AM, 0.02% pluronic acid and 1% FBS. The assay plates are placed back into the 6% CO2 incubator and incubated at 37° C. for 60 min. The 384-well plates are washed with Assay Buffer at 37° C. on using a cell washer (3×100 μl, aspiration 3 mm from bottom, will leave 30 μl of buffer in each well). The experimental run is initiated and after 30 sec a dose of test compound is applied. The fluorescent response elicited by test compound is monitored for 5 min, any positive response detected at this stage is attributed to agonist properties of the test compound. At this point an EC10 concentration of the mGluR4 agonist L-AP4 ((S)-2-amino-4-phosphonobutanoate) (final concentration 30 nM) is added and the fluorescent response is monitored for an additional 3 minutes, any positive response detected at this stage is attributed to potentiator properties of the test compound.
Controls for the assay include a no compound control, a positive control which is a saturating concentration, 10 uM, of the agonist L-AP4. A 10 point dose response, with either 2-fold or 3-fold dilution steps, is performed and curve fitting algorithms, suitable for a sigmoidal dose response relationship, are used to fit the data. The inflection point of the curve provides a measure of compound potency.
A comparison of the maximal level of activity achieved for a test compound, relative to the response achieved with a saturating concentration of the agonist L-AP4 provides a measure of compound efficacy.

T1 sequence (Q14833 33-912): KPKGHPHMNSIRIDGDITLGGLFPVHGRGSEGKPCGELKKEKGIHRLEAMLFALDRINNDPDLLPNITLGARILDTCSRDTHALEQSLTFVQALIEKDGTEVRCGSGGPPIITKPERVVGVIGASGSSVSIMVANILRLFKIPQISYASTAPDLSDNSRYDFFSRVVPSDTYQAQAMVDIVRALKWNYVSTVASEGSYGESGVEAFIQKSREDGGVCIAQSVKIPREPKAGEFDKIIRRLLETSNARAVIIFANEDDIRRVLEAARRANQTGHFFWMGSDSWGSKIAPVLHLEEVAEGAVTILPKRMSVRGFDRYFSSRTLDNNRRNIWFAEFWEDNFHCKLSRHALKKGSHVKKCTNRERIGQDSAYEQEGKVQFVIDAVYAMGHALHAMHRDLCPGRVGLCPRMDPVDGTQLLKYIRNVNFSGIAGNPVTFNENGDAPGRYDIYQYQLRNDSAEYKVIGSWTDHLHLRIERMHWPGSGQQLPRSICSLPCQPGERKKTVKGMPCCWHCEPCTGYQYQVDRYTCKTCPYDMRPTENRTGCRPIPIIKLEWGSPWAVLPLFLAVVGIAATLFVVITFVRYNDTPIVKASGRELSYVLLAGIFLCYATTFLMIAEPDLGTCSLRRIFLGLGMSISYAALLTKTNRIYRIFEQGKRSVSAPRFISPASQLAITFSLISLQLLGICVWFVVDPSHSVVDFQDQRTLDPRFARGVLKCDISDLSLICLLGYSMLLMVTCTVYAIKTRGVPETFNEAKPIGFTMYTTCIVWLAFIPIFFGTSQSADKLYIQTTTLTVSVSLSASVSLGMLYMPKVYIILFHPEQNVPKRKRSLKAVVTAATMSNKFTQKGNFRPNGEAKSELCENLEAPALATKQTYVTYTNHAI

Regarding `O=C(Nc1ccc(N2C(=O)c3ccccc3C2=O)cc1)c1ccccn1` [Example 1, N-[4-(1,3-dioxo-1,3-dihydro-2H-isoindol-2-yl)phenyl]pyridine-2-carboxamide], the IC50 on mGluR4 [1] was found to be 712 nM. Also, at mGluR4 [2], the Emax was determined as 52% and the EC50 came to 341 nM.
In the same order, the values of `Cc1cc(NC(=O)c2ccccn2)ccc1N1C(=O)c2ccccc2C1=O` [Example 3, N-[4-(1,3-dioxo-1,3-dihydro-2H-isoindol-2-yl)-3-methylphenyl]pyridine-2-carboxamide] are 1720 nM, 104% and 390 nM.
For the compound `O=C(Nc1ccc(N2C(=O)c3cccc(F)c3C2=O)c(Cl)c1)c1ccccn1` [Example 10, N-[3-chloro-4-(4-fluoro-1,3-dioxo-1,3-dihydro-2H-isoindol-2-yl)phenyl]pyridine-2-carboxamide], on mGluR4 [2], the Emax stood at 110% and the EC50 was found to be 50.4 nM.
In the same order, the values of `Cc1cccc2c1C(=O)N(c1ccc(NC(=O)c3ccccn3)cc1Cl)C2=O` [Example 13, N-[3-chloro-4-(4-methyl-1,3-dioxo-1,3-dihydro-2H-isoindol-2-yl)phenyl]pyridine-2-carboxamide] are 125% and 43.6 nM.
`Cc1cccc2c1C(=O)N(c1ccc(NC(=O)c3ccccn3)cc1Br)C2=O` [Example 29, N-[3-bromo-4-(4-methyl-1,3-dioxo-1,3-dihydro-2H-isoindol-2-yl)phenyl]pyridine-2-carboxamide] registered an IC50 at mGluR4 [1] of 12 nM. At mGluR4 [2], the Emax came to 109% and the EC50 was 101 nM.

The IC50 is the concentration that inhibits the measured activity by half.
